# Test results published in paper PMC6270263, “Factors Influencing the Antifolate Activity of Synthetic Tea-Derived Catechins” (Molecules, 2013).
# Where two headings read alike, the source gives them in different places.
# What was measured:
# [1] = system: SK-MEL-28 melanoma cell line; test: MTT cell proliferation assay in melanoma cells; assay type: cell-based, human; conditions: Homo sapiens, SK-MEL-28, 144 h, SK-MEL-28, after 6 days of treatment; read-out: Half-maximal inhibitory concentration (IC50)
# Source text: Antifolate compounds are designed to inhibit DHFR and act specifically during DNA and RNA synthesis, making them more toxic to rapidly dividing cells. Recent evidences indicate that tea-catechins and derived compounds could inhibit DHFR and block the folate cycle in cancer cells. Although inhibition of DHFR by these compounds could be a plausible explanation for their antifolate activity, the possibility of these compounds targeting (folate)-enzymes other than DHFR could not be excluded. To determine whether these newly synthetized compounds disrupt the folate cycle in cell culture, we studied their antiproliferative activity in the melanoma cell line SK-MEL-28 (Table 3). Concentration- and time-dependent effects were analyzed using the colorimetric 4,5-(3)-dimethylthiazol-2-yl)-2,5-diphenyltetrazolium bromide (MTT) method.
# The human melanoma cell line SK-MEL-28 was obtained from American Type Culture Collection (ATCC, Manassas, VA, USA) and was maintained in Eagles’s Minimum Essential Medium (EMEM) supplemented with 10% (v/v) FBS and antibiotics at 37 °C in a humidified atmosphere containing 7.5% CO2. Cell viability was evaluated using the MTT cell proliferation assay. Cells were evaluated for apoptosis using a cell death detection ELISA (Cell Death Detection ELISAPLUS, Roche Diagnostics, Barcelona, Spain). The principle of this test is the detection of mono- and oligonucleosomes in the cytoplasmic fractions of cell lysates using biotinylated anti-histone and peroxidase-coupled anti-DNA antibodies. The amount of nucleosomes is photometrically quantified at 405 nm by the peroxidase activity retained in the immunocomplexes. Apoptosis was defined as the specific enrichment of mono- and oligonucleosomes in the cytoplasm and was calculated by dividing the absorbance of treated samples with the absorbance of untreated samples after correcting for the number of cells. The induction of apoptosis in each melanoma cell line after a 7 h treatment with 2 μM staurosporin (100% apoptotic cells) was used to calculate the number of apoptotic cells. For these assays, cells were plated in a 96-well plate at a density of 1000–2000 cells/well. Compounds were added once at the beginning of the experiments.
# [2] = target: T1, bovine serum albumin (BSA) (Bos taurus, UniProt P02769); test: Competitive site-marker (warfarin, ibuprofen) binding to BSA; conditions: for Kd: BSA, 25 °C, read-out: Binding constant (KA) (converted)
# T1 construct: purchased Sigma-Aldrich
# Experimental: Next, the site selective binding of both EGCG and TMCG to BSA was analyzed. The capability of serum albumins to bind to aromatic and heterocyclic compounds is largely dependent on the existence of two major binding regions, namely site-I and site-II [25]. Warfarin and ibuprofen are fluorescence probes whose primary binding sites to BSA are site-I and site-II, respectively.
# To identify the binding sites of EGCG and TMCG in BSA, the displacements of warfarin and ibuprofen (known to bind at site I and site II, respectively) were followed fluorometrically. Equimolar solutions of BSA and warfarin (5 × 10^−6 M each) were mixed for 1 h and titrated with EGCG and TMCG in separate experiments. Similar solutions containing equimolar ibuprofen and BSA were prepared and separately titrated with EGCG and TMCG to identify the binding sites of EGCG and TMCG with BSA. Titration was followed fluorometrically using an excitation wavelength of 280 nm.
# [3] = system: SK-MEL-28 melanoma cells; test: Apoptosis assay (cell death detection ELISA) with or without site markers; assay type: cell-based, human; conditions: SK-MEL-28, warfarin 10 µM
# Source text: Serum is commonly used as a supplement in cell culture media. It supports cell growth and product formation by providing a broad spectrum of macromolecules, attachment factors, nutrients, and hormone and growth factors. The most commonly used animal serum supplement is foetal bovine serum, FBS (alternatively called foetal calf serum—FCS). Because BSA is a major component of FBS, the in vitro activity of catechins on tumour cells might be affected by their interaction with BSA. The effect of albumin binding on the biological activity of polyphenols is unclear. Does the bound ligand have some biological activity or does the polyphenol have to be in the free form to be active? To answer this question and to determine whether BSA-catechin interactions increase or decrease catechin anti-tumour activity, the proapoptotic activity of TMCG on SK-MEL-28 melanoma cells was probed in the presence of warfarin or ibuprofen [Figure 5(b)]. […] Because the binding of catechins to BSA seems to control drug availability, the lower affinity of TMCG and TMECG for serum albumins, with respect to natural tea catechins, might contribute to the high in vivo anti-tumour activity of these methylated synthetic catechins. […]
# The human melanoma cell line SK-MEL-28 was obtained from American Type Culture Collection (ATCC, Manassas, VA, USA) and was maintained in Eagles’s Minimum Essential Medium (EMEM) supplemented with 10% (v/v) FBS and antibiotics at 37 °C in a humidified atmosphere containing 7.5% CO2. Cell viability was evaluated using the MTT cell proliferation assay. Cells were evaluated for apoptosis using a cell death detection ELISA (Cell Death Detection ELISAPLUS, Roche Diagnostics, Barcelona, Spain). […] The amount of nucleosomes is photometrically quantified at 405 nm by the peroxidase activity retained in the immunocomplexes. Apoptosis was defined as the specific enrichment of mono- and oligonucleosomes in the cytoplasm and was calculated by dividing the absorbance of treated samples with the absorbance of untreated samples after correcting for the number of cells. […]
# T1 sequence (P02769 25-607): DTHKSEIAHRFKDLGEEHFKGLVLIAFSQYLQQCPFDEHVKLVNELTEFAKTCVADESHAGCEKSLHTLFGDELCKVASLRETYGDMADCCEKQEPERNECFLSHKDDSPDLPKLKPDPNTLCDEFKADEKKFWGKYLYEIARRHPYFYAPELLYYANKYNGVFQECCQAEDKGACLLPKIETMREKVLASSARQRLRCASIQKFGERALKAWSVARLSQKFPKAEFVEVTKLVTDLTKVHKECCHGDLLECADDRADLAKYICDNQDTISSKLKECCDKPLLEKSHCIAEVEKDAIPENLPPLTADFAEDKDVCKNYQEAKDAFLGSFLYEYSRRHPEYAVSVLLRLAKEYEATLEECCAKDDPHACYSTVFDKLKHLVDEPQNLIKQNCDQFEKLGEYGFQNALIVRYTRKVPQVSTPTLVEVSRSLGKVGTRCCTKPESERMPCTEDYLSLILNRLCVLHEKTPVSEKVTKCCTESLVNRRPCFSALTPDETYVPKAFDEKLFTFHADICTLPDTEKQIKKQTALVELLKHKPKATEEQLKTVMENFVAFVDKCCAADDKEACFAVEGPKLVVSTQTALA
compound,measurement,setting,value
COc1cc(C(=O)O[C@H]2Cc3c(O)cc(O)cc3O[C@@H]2c2ccc(O)c(O)c2)cc(OC)c1OC [TMCG],IC50,[1],1.5 ± 0.4 µM
same,Kd,[2]; site marker: Blank,5.26 µM
same,Kd,[2]; site marker: Ibuprofen,9.09 µM
same,Kd,[2]; site marker: Warfarin,20 µM
same,Site selective binding to BSA,[2]; competition with warfarin (site-I) and ibuprofen (site-II),higher specificity for site-I
same,Proapoptotic activity of TMCG in the presence of warfarin,[3],significantly increased
